Earlier results in patent publication US20240117023A1, “METHOD” (Agency for Science, Technology and Research, priority 2021, published 2024).

Tested on: RA and OA animal models
Details: in vivo; cited from earlier work

CN1C(=O)N(C[C@H](C(=O)NO)[C@@H](CC2CCCC2)C(=O)N2CCCCC2)C(=O)C1(C)C [Trocade]
effect in animal models: protective effects against RA and OA
